# Legend:
# [1] = test system: influenza A/HK/68; settings: mouse, in vivo
# [2] = test system: tetanus toxoid; settings: mouse, in vivo, sc
# [3] = test system: ovalbumin; assay: Stimulation of antiovalbumin antibody production; format: in vivo, BDF1 female mice; settings: 50 μg AGP + 50 μg ovalbumin; second immunization day 21; bled 14 days after second injection
# Protocol: BDF1 female mice (8 per group) were immunized with 0.2 ml of emulsions containing 50 μg of the AGPs +50 μg of ovalbumin. A second immunization was administered 21 days post primary. Each mouse was bled 14 days after the second injection.
substance,measurement,setting,value
3-[(R)-3-Tetradecanoyloxytetradecanoylamino]propyl 2-Deoxy-4-O-phosphono-3-O-[(R)-3-tetradecanoyoxytetradecanoyl]-2-[(R)-3-tetradecanoyloxytetradecanoylamino])-β-D-glucopyranoside Triethylammonium Salt [B21],Percent Survival,[1],40%
same,Titer−1 IgG1,[1],800
same,Titer−1 IgG2a,[1],100
same,Titer−1 IgG2b,[1],1600
same,Titer−1 Total IgG,[1],6400
same,Anti-tetanus toxoid IgG1 T/C,[2],2.23
same,Anti-tetanus toxoid IgG1 Titer,[2],"480,000"
same,Anti-tetanus toxoid IgG2a T/C,[2],5.83
same,Anti-tetanus toxoid IgG2a Titer,[2],"29,600"
same,Anti-tetanus toxoid IgG2b T/C,[2],6.07
same,Anti-tetanus toxoid IgG2b Titer,[2],"174,400"
same,Anti-tetanus toxoid IgM T/C,[2],5.50
same,Anti-tetanus toxoid IgM Titer,[2],"8,800"
same,Anti-tetanus toxoid Total IgG T/C,[2],4.71
same,Anti-tetanus toxoid Total IgG Titer,[2],"30,400"
same,Anti-ovalbumin IgG1 T/C,[3],0.6
same,Anti-ovalbumin IgG1 Titer,[3],1000
same,Anti-ovalbumin IgG2a T/C,[3],0.1
same,Anti-ovalbumin IgG2a Titer,[3],25
same,Anti-ovalbumin IgG2b T/C,[3],0.8
same,Anti-ovalbumin IgG2b Titer,[3],200
same,Anti-ovalbumin IgM T/C,[3],1.3
same,Anti-ovalbumin IgM Titer,[3],250
same,Anti-ovalbumin Total Ig T/C,[3],0.5
same,Anti-ovalbumin Total Ig Titer,[3],113

# Reference: patent publication US7541020B2, “Aminoalkyl glucosaminide phosphate compounds and their use as adjuvants and immunoeffectors” (priority 1997, dated 2009)
